Patent publication US20230279025A1, “KRAS G12D INHIBITORS” (Mirati Therapeutics, Inc., priority 2020, published 2023)

Biological target: KRas G12D (Homo sapiens (Human), UniProt P01116, G12D)
Assay: KRas G12D Binding Assay (TR-FRET displacement of Cy5 labelled tracer)
Settings: GDP-loaded KRAS G12D (amino acids 1:169), 60 minute incubation at 22° C.
Method: After a 60 minute incubation at 22° C., the reaction was measured using a PerkinElmer EnVision multimode plate reader via TR-FRET dual wavelength detection, and the percent of control (POC) calculated using a ratiometric emission factor. […] The POC values were fit to a 4-parameter logistic curve and the IC50 value was determined as the concentration where the curve crosses 50 POC.
ND stands for “not determined.”

Chain of KRas G12D (P01116 other isoform, or with tags, fused parts or gaps G12D): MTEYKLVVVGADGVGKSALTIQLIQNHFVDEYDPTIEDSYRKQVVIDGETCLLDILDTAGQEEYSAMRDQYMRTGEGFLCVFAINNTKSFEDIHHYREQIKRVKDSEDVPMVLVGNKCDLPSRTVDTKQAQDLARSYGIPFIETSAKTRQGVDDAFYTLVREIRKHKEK

Compound	IC50 [nM]
Cc1c(F)cccc1-c1ncc2c(N3C[C@H]4CC[C@@H](C3)N4)nc(OCC34CCCN3CCC4)nc2c1F [Example 294, 4-((1R,5S)-3,8-diazabicyclo[3.2.1]octan-3-yl)-8-fluoro-7-(3-fluoro-2-methylphenyl)-2-((hexahydro-1H-pyrrolizin-7a-yl)methoxy)pyrido[4,3-d]pyrimidine]	620
O=C(OC[C@H]1CC[C@@]2(COc3nc(N4CC5CCC(C4)N5)c4cnc(-c5cccc6cccc(Cl)c56)c(F)c4n3)CCCN12)N1CCCCC1 [Example 444, ((3R,7aR)-7a-(((4-(3,8-diazabicyclo[3.2.1]octan-3-yl)-7-(8-chloronaphthalen-1-yl)-8-fluoropyrido[4,3-d]pyrimidin-2-yl)oxy)methyl)hexahydro-1H-pyrrolizin-3-yl)methyl piperidine-1-carboxylate]	5.5
Fc1c(-c2cccc3c2CC2CC32)ncc2c(N3CC4CCC(C3)N4)nc(OC[C@@]34CCCN3C[C@H](F)C4)nc12 (stereo partly drawn) [Example 438, 4-(3,8-diazabicyclo[3.2.1]octan-3-yl)-8-fluoro-2-(((2R,7aS)-2-fluorotetrahydro-1H-pyrrolizin-7a(5H)-yl)methoxy)-7-(1,1a,6,6a-tetrahydrocyclopropa[a]inden-5-yl)pyrido[4,3-d]pyrimidine]	20.1
COc1ccccc1-c1ncc2c(N3C[C@H]4CC[C@@H](C3)N4)nc(OCC34CCCN3CCC4)nc2c1F [Example 273, 4-((1R,5S)-3,8-diazabicyclo[3.2.1]octan-3-yl)-8-fluoro-2-((hexahydro-1H-pyrrolizin-7a-yl)methoxy)-7-(2-methoxyphenyl)pyrido[4,3-d]pyrimidine]	1340
Fc1c(-c2cccc3cccc(CC(F)F)c23)ncc2c(N3C[C@H]4CC[C@@H](C3)N4)nc(OCC34CCCN3CCC4)nc12 [Example 247, 4-((1R,5S)-3,8-diazabicyclo[3.2.1]octan-3-yl)-7-(8-(2,2-difluoroethyl)naphthalen-1-yl)-8-fluoro-2-((hexahydro-1H-pyrrolizin-7a-yl)methoxy)pyrido[4,3-d]pyrimidine]	12.6
CS(=O)(=O)NC[C@H]1CC[C@@]2(COc3nc(N4C[C@H]5CC[C@@H](C4)N5)c4cnc(-c5cccc6cccc(Cl)c56)c(F)c4n3)CCCN12 [Example 420, N-(((3R,7aR)-7a-(((4-((1R,5S)-3,8-diazabicyclo[3.2.1]octan-3-yl)-7-(8-chloronaphthalen-1-yl)-8-fluoropyrido[4,3-d]pyrimidin-2-yl)oxy)methyl)hexahydro-1H-pyrrolizin-3-yl)methyl)methanesulfonamide]	20
CC(C)(F)c1ccccc1-c1ncc2c(N3CC4CCC(C3)N4)nc(OC[C@@]34CCCN3C[C@H](F)C4)nc2c1F (stereo in doubt) [Example 407, 4-((1R,5S)-3,8-diazabicyclo[3.2.1]octan-3-yl)-8-fluoro-7-(2-(2-fluoropropan-2-yl)phenyl)-2-((2-fluorotetrahydro-1H-pyrrolizin-7a(5H)-yl)methoxy)pyrido[4,3-d]pyrimidine]	560
Nc1nc2c(-c3ncc4c(N5C[C@H]6CC[C@@H](C5)N6)nc(OCC56CCCN5CCC6)nc4c3F)cccc2s1 [Example 453, 4-(4-((1R,5S)-3,8-diazabicyclo[3.2.1]octan-3-yl)-8-fluoro-2-((hexahydro-1H-pyrrolizin-7a-yl)methoxy)pyrido[4,3-d]pyrimidin-7-yl)benzo[d]thiazol-2-amine]	27
OCC#Cc1cccc2cccc(-c3ncc4c(N5C[C@H]6CC[C@@H](C5)N6)nc(OCC56CCCN5CCC6)nc4c3F)c12 [Example 193, 3-(8-(4-((1R,5S)-3,8-diazabicyclo[3.2.1]octan-3-yl)-8-fluoro-2-((tetrahydro-1H-pyrrolizin-7a(5H)-yl)methoxy)pyrido[4,3-d]pyrimidin-7-yl)naphthalen-1-yl)prop-2-yn-1-ol]	12.5
Oc1cc(Cl)c(C(F)(F)F)c(-c2ncc3c(N4C[C@H]5CC[C@@H](C4)N5)nc(OC[C@@]45CCCN4C[C@H](F)C5)nc3c2F)c1 [Example 284, 3-(4-((1R,5S)-3,8-diazabicyclo[3.2.1]octan-3-yl)-8-fluoro-2-(((2R,7aS)-2-fluorohexahydro-1H-pyrrolizin-7a-yl)methoxy)pyrido[4,3-d]pyrimidin-7-yl)-5-chloro-4-(trifluoromethyl)phenol]	0.1
C#Cc1cccc2cccc(-c3ncc4c(N5CC6CCC(C5)N6)ncnc4c3F)c12 [Example 188, 4-(3,8-diazabicyclo[3.2.1]octan-3-yl)-7-(8-ethynyl-1-naphthyl)-8-fluoro-pyrido[4,3-d]pyrimidine]	1920
Fc1c(-c2ccccc2Cl)ncc2c(N3CC4CCC(C3)N4)nc(OC[C@@]34CCCN3C[C@H](F)C4)nc12 (stereo in doubt) [Example 414, 4-((1R,5S)-3,8-diazabicyclo[3.2.1]octan-3-yl)-7-(2-chlorophenyl)-8-fluoro-2-((2-fluorotetrahydro-1H-pyrrolizin-7a(5H)-yl)methoxy)pyrido[4,3-d]pyrimidine]	873
Cc1ccccc1-c1ncc2c(N3C[C@H]4CC[C@@H](C3)N4)nc(OCC34CCCN3CCC4)nc2c1F [Example 272, 4-((1R,5S)-3,8-diazabicyclo[3.2.1]octan-3-yl)-8-fluoro-2-((hexahydro-1H-pyrrolizin-7a-yl)methoxy)-7-(o-tolyl)pyrido[4,3-d]pyrimidine]	1180
CC(C)c1c(F)cc(O)cc1-c1ncc2c(N3C[C@H]4CC[C@@H](C3)N4)nc(OC[C@@]34CCCN3C[C@H](F)C4)nc2c1F [Example 290, 3-(4-((1R,5S)-3,8-diazabicyclo[3.2.1]octan-3-yl)-8-fluoro-2-(((2R,7aS)-2-fluorotetrahydro-1H-pyrrolizin-7a(5H)-yl)methoxy)pyrido[4,3-d]pyrimidin-7-yl)-5-fluoro-4-isopropylphenol]	2.1
Fc1c(-c2cccc3c2CCC3)ncc2c(N3CC4CCC(C3)N4)nc(OC[C@@]34CCCN3C[C@H](F)C4)nc12 [Example 428, 4-(3,8-diazabicyclo[3.2.1]octan-3-yl)-7-(2,3-dihydro-1H-inden-4-yl)-8-fluoro-2-(((2R,7aS)-2-fluorotetrahydro-1H-pyrrolizin-7a(5H)-yl)methoxy)pyrido[4,3-d]pyrimidine]	92.1
CCc1c(F)ccc2cccc(-c3ncc4c(N5CC6CCC(C5)N6)nc(OC[C@@]56CCCN5C[C@H](F)C6)nc4c3F)c12 (stereo in doubt) [Example 381, 4-((1R,5S)-3,8-diazabicyclo[3.2.1]octan-3-yl)-7-(8-ethyl-7-fluoronaphthalen-1-yl)-8-fluoro-2-((2-fluorotetrahydro-1H-pyrrolizin-7a(5H)-yl)methoxy)pyrido[4,3-d]pyrimidine]	0.7
Nc1nc2c(-c3ncc4c(N5C[C@H]6CC[C@@H](C5)N6)nc(OCC56CCCN5CCC6)nc4c3F)ccc(F)c2s1 [Example 455, 4-(4-((1R,5S)-3,8-diazabicyclo[3.2.1]octan-3-yl)-8-fluoro-2-((hexahydro-1H-pyrrolizin-7a-yl)methoxy)pyrido[4,3-d]pyrimidin-7-yl)-7-fluorobenzo[d]thiazol-2-amine]	17
NCC#Cc1cccc2cccc(-c3ncc4c(N5C[C@H]6CC[C@@H](C5)N6)nc(OCC56CCCN5CCC6)nc4c3F)c12 [Example 241, 3-(8-(4-((1R,5S)-3,8-diazabicyclo[3.2.1]octan-3-yl)-8-fluoro-2-((tetrahydro-1H-pyrrolizin-7a(5H)-yl)methoxy)pyrido[4,3-d]pyrimidin-7-yl)naphthalen-1-yl)prop-2-yn-1-amine]	79.2
NC1(COc2nc(N3C[C@H]4CC[C@@H](C3)N4)c3cnc(-c4cccc5cccc(Cl)c45)c(F)c3n2)CCCCC1 [Example 262, 1-(((4-((1R,5S)-3,8-diazabicyclo[3.2.1]octan-3-yl)-7-(8-chloronaphthalen-1-yl)-8-fluoropyrido[4,3-d]pyrimidin-2-yl)oxy)methyl)cyclohexanamine]	2260
CN1C[C@H](NC(=O)c2cccc(C=O)c2)C[C@H]1COc1nc(N2C[C@H]3CC[C@@H](C2)N3)c2cnc(-c3cccc4cccc(Cl)c34)c(F)c2n1 [Example 354, N-((3R,5S)-5-(((4-((1R,5S)-3,8-diazabicyclo[3.2.1]octan-3-yl)-7-(8-chloronaphthalen-1-yl)-8-fluoropyrido[4,3-d]pyrimidin-2-yl)oxy)methyl)-1-methylpyrrolidin-3-yl)-3-formylbenzamide]	368
CN1CCC[C@H]1COc1nc(N2C[C@H]3CC[C@@H](C2)N3)c2cnc(-c3cc(O)cc4ccccc34)c(Cl)c2n1 [Example 191, 4-(4-((1R,5S)-3,8-diazabicyclo[3.2.1]octan-3-yl)-8-chloro-2-(((S)-1-methylpyrrolidin-2-yl)methoxy)pyrido[4,3-d]pyrimidin-7-yl)naphthalen-2-ol]	69.1
Fc1c(-c2cccc3cccc(C4CC4)c23)ncc2c(N3C[C@H]4CC[C@@H](C3)N4)nc(OCC34CCCN3CCC4)nc12 [Example 335, 4-((1R,5S)-3,8-diazabicyclo[3.2.1]octan-3-yl)-7-(8-cyclopropylnaphthalen-1-yl)-8-fluoro-2-((tetrahydro-1H-pyrrolizin-7a(5H)-yl)methoxy)pyrido[4,3-d]pyrimidine]	25.8
C#Cc1cccc2cc(O)cc(-c3ncc4c(N5CC6CCC(C5)N6)nc(OC[C@@]56CCCN5C[C@H](OC)C6)nc4c3F)c12 (stereo in doubt) [Example 410, 4-(4-((1R,5S)-3,8-diazabicyclo[3.2.1]octan-3-yl)-8-fluoro-2-((2-methoxytetrahydro-1H-pyrrolizin-7a(5H)-yl)methoxy)pyrido[4,3-d]pyrimidin-7-yl)-5-ethynylnaphthalen-2-ol]	1
Fc1c(-c2cccc3c2C(C2CC2)CC3)ncc2c(N3CC4CCC(C3)N4)nc(OC[C@@]34CCCN3C[C@H](F)C4)nc12 (stereo partly drawn) [Example 437, 4-(3,8-diazabicyclo[3.2.1]octan-3-yl)-7-(3-cyclopropyl-2,3-dihydro-1H-inden-4-yl)-8-fluoro-2-(((2R,7aS)-2-fluorotetrahydro-1H-pyrrolizin-7a(5H)-yl)methoxy)pyrido[4,3-d]pyrimidine]	234
